Measured values: PubChem BioAssay (NCI)
Values joined by “and” are separate entries in the source; they are usually repeats but may differ in a detail not shown here. Equal entries are not always repeated.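 Cultured in 96-well plates, cells were exposed to test compound for 48 hours across five concentrations. Here, GI50 denotes the concentration required for 50% inhibition of growth. At the TGI there is no net growth.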

How the values were obtained:
Assay in all cases: DTP human tumour cell line panel, 48 h
HL-60(TB) leukemia = tested on: HL-60(TB) leukemia
HOP-62 NSCLC = tested on: HOP-62 NSCLC
HS 578T breast = tested on: HS 578T breast
KM12 colon = tested on: KM12 colon
MALME-3M melanoma = tested on: MALME-3M melanoma
MDA-MB-231 breast = tested on: MDA-MB-231 breast
NCI-H522 lung = tested on: NCI-H522 lung
RXF 393 renal = tested on: RXF 393 renal
SK-MEL-28 melanoma = tested on: SK-MEL-28 melanoma
SN12C renal = tested on: SN12C renal

Row | SMILES | GI50 (HL-60(TB) leukemia) | TGI (HL-60(TB) leukemia) | GI50 (HOP-62 NSCLC) | TGI (HOP-62 NSCLC) | GI50 (HS 578T breast) | TGI (HS 578T breast) | GI50 (KM12 colon) | TGI (KM12 colon) | GI50 (MALME-3M melanoma) | TGI (MALME-3M melanoma) | GI50 (MDA-MB-231 breast) | TGI (MDA-MB-231 breast) | GI50 (NCI-H522 lung) | TGI (NCI-H522 lung) | GI50 (RXF 393 renal) | TGI (RXF 393 renal) | GI50 (SK-MEL-28 melanoma) | TGI (SK-MEL-28 melanoma) | GI50 (SN12C renal) | TGI (SN12C renal)
1 | O=C(CNc1ccc2c(c1)C(=O)c1ccccc1C2=O)Nc1ccc2c(c1)C(=O)c1ccccc1C2=O | 1570 nM | 4350 nM | 1850 nM | 3590 nM | 2290 nM | 13200 nM | 1400 nM | 2730 nM | 739 nM | 2360 nM | 1310 nM | 4710 nM | 153 nM | 318 nM | 687 nM | 2040 nM | 1680 nM | 3130 nM | 293 nM | 1000 nM
2 | NC(N)=N/N=C\c1cccc(OCc2ccccc2)c1 | 2660 nM | 6350 nM | 5160 nM | 19100 nM | 9120 nM | 28700 nM | 2410 nM | 8330 nM | 3350 nM | 13500 nM | 2370 nM | 6110 nM | 2160 nM | 11300 nM | 2540 nM | 6640 nM | 1660 nM | 3410 nM | 4330 nM | 17600 nM
3 | CC[C@H](Nc1nc(NCc2cnc(C)cc2C)c2ncn(C(C)C)c2n1)[C@@H](C)O | 270 nM | 744 nM | 356 nM | > 59700 nM | 281 nM | 956 nM | 312 nM | 12200 nM | 1180 nM | 4220 nM | 313 nM | > 100000 nM | 262 nM | 1310 nM | 179 nM | 389 nM | 374 nM | 6800 nM | 351 nM | > 100000 nM
4 | CC(C)(O)CS(=O)(=O)Nc1ccc2c(c1)CCN(C(=O)COc1cccnc1)C2 | > 100000 nM | > 100000 nM | 99400 nM | > 100000 nM | > 100000 nM | > 100000 nM | 277 nM | > 100000 nM | > 100000 nM | > 100000 nM | > 100000 nM | > 100000 nM |  | > 100000 nM | > 100000 nM | > 100000 nM | > 100000 nM | > 100000 nM | 67.7 nM | > 100000 nM
5 | CCOC(=O)c1[nH]c(Br)c(-c2ccc(Br)cc2)c1Br | 207 nM | 596 nM | 514 nM | 4740 nM and 2810 nM |  | 13200 nM | 302 nM | 16000 nM | 460 nM | 15800 nM | 782 nM | 7070 nM | 178 nM | 3420 nM and 520 nM |  | 8140 nM |  | 22100 nM | 502 nM | 4750 nM
6 | O=C1/C(=C/c2ccccc2)CN(C(=O)c2cccnc2)C/C1=C\c1ccccc1 | 2340 nM | 11500 nM | 3020 nM | 10400 nM | 5560 nM | 41500 nM | 271 nM | 765 nM | 4780 nM | 18900 nM | 1920 nM | 4830 nM | 1570 nM | 3660 nM | 1720 nM | 3300 nM | 2390 nM | 6370 nM | 2390 nM | 7960 nM
7 | COc1cc(-c2nn(-c3cccc(NC(=O)Nc4cc(C(F)(F)F)cc(C(F)(F)F)c4)c3)cc2-c2ccncc2)ccc1Cl | 551 nM | 11900 nM | 749 nM | 1550 nM | 1160 nM | 8810 nM | 412 nM | 2090 nM | 677 nM | 2000 nM | 675 nM | 1430 nM | 356 nM | 1430 nM | 841 nM | 2150 nM | 758 nM | 1940 nM | 471 nM | 1960 nM
8 | Cc1cc2nc3c4cc(N)ccc4n(CCN(C)C)c3nc2cc1C | 947 nM | 4240 nM | 687 nM | 14700 nM | 2060 nM | 9810 nM | 882 nM | 7110 nM | 1270 nM | 3080 nM | 1120 nM | 7610 nM | 721 nM | 5630 nM | 912 nM | 2720 nM | 2080 nM | 5770 nM | 484 nM | 11700 nM
9 | C=C1C(=O)O[C@H]2[C@H]1CC/C(Cn1cc(-c3cc(C(F)(F)F)cc(C(F)(F)F)c3)nn1)=C\CC[C@@]1(C)O[C@@H]21 | 190 nM | 484 nM | 1560 nM | 3310 nM | 1030 nM | 4230 nM | 1040 nM | 2530 nM | 521 nM | 2160 nM | 333 nM | 1060 nM | 122 nM | 270 nM | 27.4 nM | 102 nM | 465 nM | 1650 nM | 702 nM | 2380 nM
10 | COc1cc2c3c(n(CCCN)c(=O)c2cc1OC)-c1cc2c(cc1/C3=C\CCN)OCO2 | 9090 nM | > 73900 nM | 5950 nM | 36700 nM | 11000 nM | 55700 nM | 2600 nM | > 21800 nM | 1100 nM | 4260 nM | 2500 nM | 11200 nM | 200 nM | 3080 nM | 4410 nM | 14800 nM | 2150 nM | 9670 nM | 62.7 nM | 3810 nM
11 | CC1(C)N=C(N)N=C(N)N1c1ccc(OCCCCOc2ccc(S(=O)(=O)F)cc2)c(Cl)c1 | 59.5 nM | 13700 nM | 269 nM | 12900 nM | 4850 nM | 34300 nM | 279 nM | 11700 nM | 2380 nM | 37700 nM | 1900 nM | 23900 nM | 160 nM | 16200 nM | 363 nM | 23200 nM | 559 nM | 28800 nM | 57.5 nM | 15200 nM
12 | COC(=O)C1=C(C(=O)ON)C2C=CC1(C(Cc1ccccc1)Nc1ccccc1)O2 (stereo not given) | 2890 nM | 10100 nM | 14400 nM | 27900 nM | 25300 nM | > 100000 nM | 15100 nM | 30000 nM | 1760 nM | 3330 nM | 1870 nM | 3590 nM | 1450 nM | 2980 nM | 1780 nM | 3200 nM | 1920 nM | 3660 nM | 1990 nM | 4450 nM
13 | C=C(CN1C(=O)[C@H]2CCCN2C(=O)c2ccccc21)c1ccc(C(=O)O)cc1 | > 100000 nM | > 100000 nM | > 100000 nM | > 100000 nM | > 100000 nM | > 100000 nM | > 100000 nM | > 100000 nM | > 100000 nM | > 100000 nM | > 100000 nM | > 100000 nM | > 100000 nM | > 100000 nM | > 100000 nM | > 100000 nM | > 100000 nM | > 100000 nM | > 100000 nM | > 100000 nM
14 | O=C(Nc1cccc(Cl)c1)c1ccc(NC2=C(Cl)C(=O)N(Cc3ccccc3)C2=O)cc1 | 3790 nM | 15200 nM | 18200 nM | 33000 nM | 18600 nM | 48500 nM | > 38300 nM | > 56200 nM | 24000 nM | 78500 nM | 8080 nM | 31900 nM | 5600 nM | > 44600 nM | 9550 nM | 24700 nM | 14400 nM | 31700 nM | 7770 nM | 23000 nM
15 | COc1ccc(/C=C\c2cc(OC)c(OC)c(OC)c2)cc1OC(=O)c1cccc(Cn2cc(CCOC(=O)[C@H](N)Cc3cn(C)c4ccccc34)nn2)c1 | < 10 nM |  | < 10 nM | > 100000 nM | < 10 nM | > 100000 nM | < 10 nM | 16500 nM | 81 nM | 25600 nM | < 10 nM | > 51900 nM | < 10 nM | 29400 nM | < 10 nM | 12900 nM | 2690 nM | 36100 nM | < 10 nM | > 100000 nM
16 | CC1=C2C[C@H]3[C@@H](CC[C@@H]4CC(NS(C)(=O)=O)CC[C@@]43C)[C@@H]2CC[C@@]2(C1)O[C@@H]1C[C@H](C)CN[C@H]1[C@H]2C (stereo not given in full) | 6120 nM | 21400 nM | 11300 nM | 24800 nM | 11800 nM | 37500 nM | 9220 nM | 22600 nM | 9750 nM | 25200 nM | 5680 nM | 18800 nM | 14300 nM | 29000 nM | 3650 nM | 15600 nM | 4810 nM | 11300 nM | 10400 nM | 23400 nM
17 | COc1ncc(-c2ccc3nccc(-c4ccnnc4)c3c2)cc1NS(=O)(=O)c1ccc(F)cc1F | 22.4 nM and < 10 nM | > 4010 nM and 1210 nM | 8.03 nM and < 12.2 nM | 1930 nM and 3020 nM | 2.12 nM and < 10 nM | 43.3 nM and 23 nM | 33 nM and 30.2 nM | 1530 nM and 1580 nM | 4.73 nM and < 10 nM | 114 nM and 22.2 nM | 39.2 nM and 43.9 nM | 1830 nM | 14.7 nM and < 10.4 nM | 2160 nM and 2580 nM | 4.8 nM and < 10 nM | 43.6 nM and 35.1 nM | 2.13 nM and < 10 nM | 39.5 nM and 360 nM | 11.1 nM and < 10 nM | > 100000 nM
